Counter-ions that a name gives are not always drawn.
target: T1, Androgen Receptor (Homo sapiens, UniProt P10275, T878A); assay: Androgen Receptor Degradation Assay (Nano-Glo HiBiT); format: cell-based; details: HiBiT-tagged AR in human LnCaP cells, 18 h
T1 construct: the AR gene was modified, using CRISPR/Cas9 editing, so the expressed AR protein included an 11 amino acid HiBiT tag; endogenous in cells; host or cells: clonal LnCaP-derived line, AR gene edited by CRISPR/Cas9
Outline: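 LnCaP cells with CRISPR-knocked-in N-terminal HiBiT-tagged AR (10,000/well) treated 18 h at 37 °C with PROTACs over 11 threefold concentrations; lytic HiBiT luminescence normalised to DMSO (0%) and cell-free (100%) controls. Relative DC50 = 4-parameter fit inflection; absolute DC50 = 50% degradation interpolation; Dmax = maximum observed degradation.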

T1 sequence (P10275 whole entry T878A): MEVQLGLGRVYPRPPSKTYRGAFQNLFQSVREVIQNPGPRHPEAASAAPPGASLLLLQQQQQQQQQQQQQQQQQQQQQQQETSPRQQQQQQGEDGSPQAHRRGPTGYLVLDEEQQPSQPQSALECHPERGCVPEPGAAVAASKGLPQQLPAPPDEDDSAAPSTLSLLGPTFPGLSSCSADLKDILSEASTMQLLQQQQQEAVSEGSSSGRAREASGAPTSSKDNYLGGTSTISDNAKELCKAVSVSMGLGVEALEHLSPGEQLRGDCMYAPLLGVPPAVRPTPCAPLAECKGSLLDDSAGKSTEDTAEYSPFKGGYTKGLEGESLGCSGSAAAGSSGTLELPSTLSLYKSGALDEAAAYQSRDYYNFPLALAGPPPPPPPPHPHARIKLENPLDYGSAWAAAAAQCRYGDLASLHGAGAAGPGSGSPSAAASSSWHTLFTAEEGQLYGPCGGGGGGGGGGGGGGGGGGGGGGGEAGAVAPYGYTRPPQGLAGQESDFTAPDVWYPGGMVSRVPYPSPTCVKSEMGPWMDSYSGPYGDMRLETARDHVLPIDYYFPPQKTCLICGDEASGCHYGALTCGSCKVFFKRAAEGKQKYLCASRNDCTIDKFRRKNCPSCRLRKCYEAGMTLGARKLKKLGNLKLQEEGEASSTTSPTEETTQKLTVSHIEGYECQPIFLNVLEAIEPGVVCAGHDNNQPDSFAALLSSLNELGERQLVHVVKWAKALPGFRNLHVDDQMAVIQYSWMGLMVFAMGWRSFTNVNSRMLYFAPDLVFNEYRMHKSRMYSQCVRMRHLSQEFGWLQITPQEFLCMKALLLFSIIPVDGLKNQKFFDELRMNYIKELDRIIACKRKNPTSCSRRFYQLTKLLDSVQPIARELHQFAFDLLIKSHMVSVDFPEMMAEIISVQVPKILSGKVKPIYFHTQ
T1 sequence (Q96SW2 whole entry partner): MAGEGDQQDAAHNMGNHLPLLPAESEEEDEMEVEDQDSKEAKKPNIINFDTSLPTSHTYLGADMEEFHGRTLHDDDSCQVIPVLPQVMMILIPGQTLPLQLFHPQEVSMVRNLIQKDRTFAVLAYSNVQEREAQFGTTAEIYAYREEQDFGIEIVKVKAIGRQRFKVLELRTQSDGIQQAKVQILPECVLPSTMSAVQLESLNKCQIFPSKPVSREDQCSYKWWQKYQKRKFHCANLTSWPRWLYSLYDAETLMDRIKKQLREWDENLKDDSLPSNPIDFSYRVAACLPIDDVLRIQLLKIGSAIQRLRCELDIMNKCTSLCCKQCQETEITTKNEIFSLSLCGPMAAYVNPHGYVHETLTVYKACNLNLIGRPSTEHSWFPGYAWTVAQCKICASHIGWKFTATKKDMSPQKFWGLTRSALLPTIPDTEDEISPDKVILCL
T1 sequence (Q16531 whole entry partner): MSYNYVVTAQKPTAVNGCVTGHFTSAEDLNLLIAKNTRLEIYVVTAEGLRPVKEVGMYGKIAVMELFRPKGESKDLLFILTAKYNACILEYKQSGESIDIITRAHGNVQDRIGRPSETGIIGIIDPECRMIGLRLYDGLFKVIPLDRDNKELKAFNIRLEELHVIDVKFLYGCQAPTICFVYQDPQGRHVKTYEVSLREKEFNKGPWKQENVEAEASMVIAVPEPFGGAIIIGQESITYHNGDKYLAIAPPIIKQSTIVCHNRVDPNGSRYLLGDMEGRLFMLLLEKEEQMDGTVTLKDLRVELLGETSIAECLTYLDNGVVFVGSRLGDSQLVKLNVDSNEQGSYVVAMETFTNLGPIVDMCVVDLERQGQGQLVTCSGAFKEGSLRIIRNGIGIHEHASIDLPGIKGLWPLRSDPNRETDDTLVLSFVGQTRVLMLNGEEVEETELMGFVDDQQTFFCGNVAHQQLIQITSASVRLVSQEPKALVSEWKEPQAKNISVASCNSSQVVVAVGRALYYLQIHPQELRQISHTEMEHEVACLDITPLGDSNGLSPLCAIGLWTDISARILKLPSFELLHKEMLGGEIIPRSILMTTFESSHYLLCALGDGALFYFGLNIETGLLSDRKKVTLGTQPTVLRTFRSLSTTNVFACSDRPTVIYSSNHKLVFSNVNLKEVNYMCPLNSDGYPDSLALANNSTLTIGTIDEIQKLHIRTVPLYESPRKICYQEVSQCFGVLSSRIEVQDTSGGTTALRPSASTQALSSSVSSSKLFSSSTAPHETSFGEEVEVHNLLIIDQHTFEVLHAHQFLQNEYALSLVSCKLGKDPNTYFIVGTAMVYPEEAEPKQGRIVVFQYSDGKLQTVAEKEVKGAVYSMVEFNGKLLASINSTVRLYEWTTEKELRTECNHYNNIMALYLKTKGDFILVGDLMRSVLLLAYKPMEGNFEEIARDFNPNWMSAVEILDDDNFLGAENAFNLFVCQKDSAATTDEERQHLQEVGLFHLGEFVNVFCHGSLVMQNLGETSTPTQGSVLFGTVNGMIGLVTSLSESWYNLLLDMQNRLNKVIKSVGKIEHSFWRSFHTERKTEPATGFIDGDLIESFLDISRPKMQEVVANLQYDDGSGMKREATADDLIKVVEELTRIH

mean relative pDC50	SMILES
5.67	CC1(C)[C@H](NC(=O)c2ncc(N3CCC(CN4CCC(n5ncc6c(N7CCC(=O)NC7=O)nccc65)CC4)CC3)cn2)C(C)(C)[C@H]1Oc1ccc(C#N)c(Cl)c1 [EAR273, N-((1r,3r)-3-(3-Chloro-4-cyanophenoxy)-2,2,4,4-tetramethylcyclobutyl)-5-(4-((4-(4-(2,4-dioxotetrahydropyrimidin-1(2H)-yl)-1H-pyrazolo[4,3-c]pyridin-1-yl)piperidin-1-yl)methyl)piperidin-1-yl)pyrimidine-2-carboxamide]

same assay, conditions: LNCaP, 18 h, HiBiT-tagged AR in human LnCaP cells, read-out: mean asymptote max

SMILES	Dmax
N#Cc1ccc(O[C@H]2CC[C@H](NC(=O)c3ccc4c(c3)CCN(C(=O)CN3CCC(n5ccc6c(N7CCC(=O)NC7=O)cccc65)CC3)C4)CC2)cc1Cl [AR5, N-((1r,4r)-4-(3-Chloro-4-cyanophenoxy)cyclohexyl)-2-(2-(4-(4-(2,4-dioxotetrahydropyrimidin-1(2H)-yl)-1H-indol-1-yl)piperidin-1-yl)acetyl)-1,2,3,4-tetrahydroisoquinoline-6-carboxamide]	≥ 50%
CC(C)n1ccc2c(N3CCC(=O)NC3=O)cc(C(=O)N(C)CC3CCN(C4CCN(c5ccc(N6C(=S)N(c7ccc(C#N)c(C(F)(F)F)c7)C(=O)C6(C)C)cc5)CC4)CC3)cc21 [EAR88, N-((1′-(4-(3-(4-Cyano-3-(trifluoromethyl)phenyl)-5,5-dimethyl-4-oxo-2-thioxoimidazolidin-1-yl)phenyl)-[1,4′-bipiperidin]-4-yl)methyl)-4-(2,4-dioxotetrahydropyrimidin-1(2H)-yl)-1-isopropyl-N-methyl-1H-indole-6-carboxamide formate]	≥ 50%
N#Cc1ccc(O[C@H]2CC[C@H](NC(=O)c3cnc(N4CCC(CN5CCC(n6ccc7c(N8CCC(=O)NC8=O)cncc76)CC5)CC4)cn3)CC2)cc1Cl [AR16, N-((1r,4r)-4-(3-Chloro-4-cyanophenoxy)cyclohexyl)-5-(4-((4-(4-(2,4-dioxotetrahydropyrimidin-1(2H)-yl)-1H-pyrrolo[2,3-c]pyridin-1-yl)piperidin-1-yl)methyl)piperidin-1-yl)pyrazine-2-carboxamide]	≥ 50%
N#Cc1ccc(O[C@H]2CC[C@H](NC(=O)c3ccc(N4CCC[C@@H](CN5CCC(n6ncc7c(N8CCC(=O)NC8=O)cccc76)CC5)C4)nn3)CC2)cc1Cl [EAR153, N-((1r,4S)-4-(3-Chloro-4-cyanophenoxy)cyclohexyl)-6-((S)-3-((4-(4-(2,4-dioxotetrahydropyrimidin-1(2H)-yl)-1H-indazol-1-yl)piperidin-1-yl)methyl)piperidin-1-yl)pyridazine-3-carboxamide, formic acid salt]	≥ 50%
C[C@@H]1CN(c2ccc(C#N)c(Cl)c2)[C@@H](C)CN1C(=O)c1ccc(OCCCCCN2CCC(n3ccc4c(N5CCC(=O)NC5=O)cncc43)CC2)nc1 [EAR165, 2-Chloro-4-((2S,5R)-4-(6-((5-(4-(4-(2,4-dioxotetrahydropyrimidin-1(2H)-yl)-1H-pyrrolo[2,3-c]pyridin-1-yl)piperidin-1-yl)pentyl)oxy)nicotinoyl)-2,5-dimethylpiperazin-1-yl)benzonitrile]	≥ 50%
C[C@@H]1CN(c2ccc(C#N)c(Cl)c2)[C@@H](C)CN1C(=O)Nc1ccc(OCCCCN2CCC(n3ccc4c(N5CCC(=O)NC5=O)cccc43)CC2)nc1 [EAR109, (2R,5S)-4-(3-Chloro-4-cyanophenyl)-N-(6-(4-(4-(4-(2,4-dioxotetrahydropyrimidin-1(2H)-yl)-1H-indol-1-yl)piperidin-1-yl)butoxy)pyridin-3-yl)-2,5-dimethylpiperazine-1-carboxamide]	≥ 50%
CC(C)n1ccc2c(N3CCC(=O)NC3=O)cc(C(=O)N3CCN(CCCOc4ccc(N5C(=S)N(c6ccc(C#N)c(C(F)(F)F)c6)C(=O)C5(C)C)cc4)CC3)cc21 [EAR94, 4-(3-(4-(3-(4-(4-(2,4-Dioxotetrahydropyrimidin-1(2H)-yl)-1-isopropyl-1H-indole-6-carbonyl)piperazin-1-yl)propoxy)phenyl)-4,4-dimethyl-5-oxo-2-thioxoimidazolidin-1-yl)-2-(trifluoromethyl)benzonitrile formate]	≥ 50%
CN(c1ccc(C#N)c(Cl)c1)[C@H]1CC[C@H](NC(=O)c2ccc(N3CCC(CN4CCC(n5ccc6c(N7CCC(=O)NC7=O)ncnc65)CC4)CC3)nn2)CC1 [EAR214, N-((1r,4r)-4-((3-Chloro-4-cyanophenyl)(methyl)amino)cyclohexyl)-6-(4-((4-(4-(2,4-dioxotetrahydropyrimidin-1(2H)-yl)-7H-pyrrolo[2,3-d]pyrimidin-7-yl)piperidin-1-yl)methyl)piperidin-1-yl)pyridazine-3-carboxamide hydrochloride]	≥ 50%

Further lines, results first:

Dmax	SMILES
≥ 50%	N#Cc1ccc(O[C@H]2CC[C@H](NC(=O)c3ccc(N4CCC(CN5CCC(n6ccc7c(N8CCC(=O)NC8=O)cccc76)CC5)CC4)cn3)CC2)cc1Cl [EAR186, N-((1r,4r)-4-(3-Chloro-4-cyanophenoxy)cyclohexyl)-5-(4-((4-(4-(2,4-dioxotetrahydropyrimidin-1(2H)-yl)-1H-indol-1-yl)piperidin-1-yl)methyl)piperidin-1-yl)picolinamide]
≥ 50%	CC1(C)[C@H](NC(=O)c2ccc(N3CCC(CN4CCC(n5ccc6c(N7CCC(=O)NC7=O)cccc65)CC4)CC3)nn2)C(C)(C)[C@H]1Oc1ccc(C#N)c(Cl)c1 [EAR55, N-((1r,3r)-3-(3-Chloro-4-cyanophenoxy)-2,2,4,4-tetramethylcyclobutyl)-6-(4-((4-(4-(2,4-dioxotetrahydropyrimidin-1(2H)-yl)-1H-indol-1-yl)piperidin-1-yl)methyl)piperidin-1-yl)pyridazine-3-carboxamide]
≥ 50%	CC1(C)[C@H](NC(=O)c2ncc(N3CCC(CN4CCC(n5ncc6c(N7CCC(=O)NC7=O)nccc65)CC4)CC3)cn2)C(C)(C)[C@H]1Oc1ccc(C#N)c(Cl)c1 [EAR273, N-((1r,3r)-3-(3-Chloro-4-cyanophenoxy)-2,2,4,4-tetramethylcyclobutyl)-5-(4-((4-(4-(2,4-dioxotetrahydropyrimidin-1(2H)-yl)-1H-pyrazolo[4,3-c]pyridin-1-yl)piperidin-1-yl)methyl)piperidin-1-yl)pyrimidine-2-carboxamide]
≥ 50%	N#Cc1ccc(O[C@H]2CC[C@H](NC(=O)c3ccc(N4CC5(CCC5CN5CCC(n6ncc7c(N8CCC(=O)NC8=O)cccc76)CC5)C4)nn3)CC2)cc1Cl (some centres unmarked) [EAR236, N-((1r,4r)-4-(3-chloro-4-cyanophenoxy)cyclohexyl)-6-(5-((4-(4-(2,4-dioxotetrahydropyrimidin-1(2H)-yl)-1H-indazol-1-yl)piperidin-1-yl)methyl)-2-azaspiro[3.3]heptan-2-yl)pyridazine-3-carboxamide]
≥ 50%	CC(C)n1ccc2c(N3CCC(=O)NC3=O)cc(C(=O)N3CCN(CCCOc4ccc(C(=O)N[C@H]5CC[C@H](Oc6ccc(C#N)c(Cl)c6)CC5)nc4)CC3)cc21 [EAR59, N-((1r,4r)-4-(3-Chloro-4-cyanophenoxy)cyclohexyl)-5-(3-(4-(4-(2,4-dioxotetrahydropyrimidin-1(2H)-yl)-1-isopropyl-1H-indole-6-carbonyl)piperazin-1-yl)propoxy)picolinamide]
≥ 50%	N#Cc1ccc(O[C@H]2CC[C@H](NC(=O)c3ccc(N4CCOC(CCN5CCC(n6ncc7c(N8CCC(=O)NC8=O)cccc76)CC5)C4)nn3)CC2)cc1Cl (some centres unmarked) [EAR243, N-((1r,4r)-4-(3-chloro-4-cyanophenoxy)cyclohexyl)-6-(2-(2-(4-(4-(2,4-dioxotetrahydropyrimidin-1(2H)-yl)-1H-indazol-1-yl)piperidin-1-yl)ethyl)morpholino)pyridazine-3-carboxamide]
≥ 50%	CC(C)n1ccc2c(N3CCC(=O)NC3=O)cc(C(=O)N3CCN(c4ccc(C(=O)N[C@H]5CC[C@H](Oc6ccc(C#N)c(Cl)c6)CC5)nn4)CC3)cc21 [EAR77, N-((1r,4r)-4-(3-Chloro-4-cyanophenoxy)cyclohexyl)-6-(4-(4-(2,4-dioxotetrahydropyrimidin-1(2H)-yl)-1-isopropyl-1H-indole-6-carbonyl)piperazin-1-yl)pyridazine-3-carboxamide]
≥ 50%	N#Cc1ccc(O[C@H]2CC[C@H](NC(=O)c3cnc(N4CCC(CN5CCC(n6ccc7c(N8CCC(=O)NC8=O)ncnc76)CC5)CC4)cn3)CC2)cc1Cl [EAR196, N-((1r,4r)-4-(3-Chloro-4-cyanophenoxy)cyclohexyl)-5-(4-((4-(4-(2,4-dioxotetrahydropyrimidin-1(2H)-yl)-7H-pyrrolo[2,3-d]pyrimidin-7-yl)piperidin-1-yl)methyl)piperidin-1-yl)pyrazine-2-carboxamide hydrochloride]
≥ 50%	N#Cc1ccc(O[C@H]2CC[C@H](NC(=O)c3ccc(N4CCC(CN5CCC(n6ncc7c(N8CCC(=O)NC8=O)cccc76)CC5)CC4)nn3)CC2)cc1Cl [EAR43, N-((1r,4r)-4-(3-Chloro-4-cyanophenoxy)cyclohexyl)-6-(4-((4-(4-(2,4-dioxotetrahydropyrimidin-1(2H)-yl)-1H-indazol-1-yl)piperidin-1-yl)methyl)piperidin-1-yl)pyridazine-3-carboxamide]
≥ 50%	N#Cc1ccc(O[C@H]2CC[C@H](NC(=O)c3ccc(N4CCN(CC(=O)N5CCC(n6ncc7c(N8CCC(=O)NC8=O)cccc76)CC5)CC4)nn3)CC2)cc1Cl [EAR158, N-((1r,4r)-4-(3-Chloro-4-cyanophenoxy)cyclohexyl)-6-(4-(2-(4-(4-(2,4-dioxotetrahydropyrimidin-1(2H)-yl)-1H-indazol-1-yl)piperidin-1-yl)-2-oxoethyl)piperazin-1-yl)pyridazine-3-carboxamide]
≥ 50%	N#Cc1ccc(O[C@H]2CC[C@H](NC(=O)c3cnc(N4CCC(CN5CCC(n6ncc7c(N8CCC(=O)NC8=O)c(F)ccc76)CC5)CC4)cn3)CC2)cc1Cl [EAR190, N-((1r,4r)-4-(3-Chloro-4-cyanophenoxy)cyclohexyl)-5-(4-((4-(4-(2,4-dioxotetrahydropyrimidin-1(2H)-yl)-5-fluoro-1H-indazol-1-yl)piperidin-1-yl)methyl)piperidin-1-yl)pyrazine-2-carboxamide hydrochloride]

From US20250205344A1, “2,4-DIOXOTETRAHYDROPYRIMIDINYL DERATIVES AS DEGRONS IN PROTACS” (GLAXOSMITHKLINE INTELLECTUAL PROPERTY DEVELOPMENT LIMITED, priority 2022, published 2025)
